Reference: patent US12336982B2 (RODEO THERAPEUTICS CORPORATION, priority 2018, dated 2025)

Molecular target: T1, recombinant 15-PGDH (Homo sapiens, UniProt P15428)
T1 sequence (P15428 1-266): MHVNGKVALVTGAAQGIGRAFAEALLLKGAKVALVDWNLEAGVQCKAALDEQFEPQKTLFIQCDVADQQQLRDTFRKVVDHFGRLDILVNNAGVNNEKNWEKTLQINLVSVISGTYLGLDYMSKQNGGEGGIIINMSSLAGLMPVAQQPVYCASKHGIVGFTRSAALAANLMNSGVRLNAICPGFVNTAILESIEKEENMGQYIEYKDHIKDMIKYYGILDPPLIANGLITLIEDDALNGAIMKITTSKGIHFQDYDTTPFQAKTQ
Assay type: biochemical
Settings: recombinant human 15-PGDH, in vitro; read-out: PDGH Assay-IC50
Excerpt: The Recombinant 15-PGDH is human unless otherwise specified.

SMILES	IC50
CN1CCN(c2ncc(-c3cc(-c4ccccc4)c4c(N)c([S@@+]([O-])C5CCC5)sc4n3)cn2)CC1 [Example 49]	≥ 10 nM
COCC[S@+]([O-])c1sc2nc(-c3cncnc3)cc(C3CC3)c2c1N [Example 149]	≥ 10 nM
COCC[S@+]([O-])c1sc2nc(-c3cncnc3)cc(-c3ccccc3)c2c1N [Example 86]	≥ 10 nM
COCCC[S+]([O-])c1sc2nc(-c3ccc(NC(=O)OC)nc3)cc(-c3cccnc3)c2c1N (centres unmarked) [Example 105]	2.5 to 10 nM
COCC[S@+]([O-])c1sc2nc(-c3cnn(C)c3)cc(C3CC3)c2c1N [Example 276]	≥ 10 nM
Nc1c([S+]([O-])C2CCC2)sc2nc(-c3cnc(NCCO)nc3)cc(-c3ccc(F)cc3)c12 (centres unmarked) [Example 158]	2.5 to 10 nM
COCCC[S+]([O-])c1sc2nc(-c3ccc(NCCO)nc3)cc(-c3ccc(F)cc3)c2c1N (centres unmarked) [Example 70]	2.5 to 10 nM
Nc1c([S@@+]([O-])C2CCC2)sc2nc(-c3cnc(NCCOCCO)nc3)cc(-c3ccccc3)c12 [Example 185]	≥ 10 nM
COCC[S+]([O-])c1sc2nc(-c3cnc(N(C)CCO)nc3)cc(C(F)(F)F)c2c1N (centres unmarked) [Example 186]	2.5 to 10 nM
COCC[S@+]([O-])c1sc2nc(-c3cnc(N)nc3)cc(C3CC3)c2c1N [Example 151]	≥ 10 nM
COCCC[S+]([O-])c1sc2nc(-c3cnc(N4CC(O)C4)nc3)cc(-c3ccccc3)c2c1N (centres unmarked) [Example 290]	2.5 to 10 nM
Nc1c([S@@+]([O-])C2CCC2)sc2nc(-c3cncnc3)cc(-c3ccon3)c12 [Example 310]	≥ 10 nM
COCC[S@+]([O-])c1sc2nc(-c3cnc4ncn(C)c4c3)cc(-c3ccccc3)c2c1N [Example 363]	≥ 10 nM
CC1(O)CN(c2ncc(-c3cc(-c4ccccc4)c4c(N)c([S+]([O-])C5CCC5)sc4n3)cn2)C1 (centres unmarked) [Example 411]	2.5 to 10 nM
COCC[S@+]([O-])c1sc2nc(-c3cnc4c(c3)CNC4=O)cc(-c3ccccc3)c2c1N [Example 243]	≥ 10 nM
COCC[S+]([O-])c1sc2nc(-c3ccc(NC(=O)OC)nc3)cc(C3CCC3)c2c1N (centres unmarked) [Example 391]	2.5 to 10 nM
COCCC[S@+]([O-])c1sc2nc(-c3cnc4c(cnn4C)c3)cc(-c3cccnc3)c2c1N [Example 102]	≥ 10 nM
Nc1c([S@@+]([O-])C2CCC2)sc2nc(-c3cnc4ncnn4c3)cc(-c3ccccc3)c12 [Example 403]	≥ 10 nM
COCC[S@@+]([O-])c1sc2nc(-c3cnc4nn(C)cc4c3)nc(-c3ccccc3)c2c1N [Example 433]	< 2.5 nM
Cn1ccc(-c2cc(-c3ccnnc3)nc3sc([S+]([O-])C4CCC4)c(N)c23)n1 (centres unmarked) [Example 213]	< 2.5 nM
Cc1ncc(-c2cc(-c3cnn(C)c3)c3c(N)c([S+]([O-])C4CCC4)sc3n2)cn1 (centres unmarked) [Example 281]	< 2.5 nM
Nc1ncc(-c2cc(-c3cncc(F)c3)c3c(N)c([S+]([O-])C4CCC4)sc3n2)cn1 (centres unmarked) [Example 67]	< 2.5 nM
COCC[S+]([O-])c1sc2nc(-c3ccc(NC(=O)OC)nc3)cc(-c3cccnc3)c2c1N (centres unmarked) [Example 390]	2.5 to 10 nM
COCC[S@@+]([O-])c1sc2nc(-c3cc(=O)n(C)cn3)cc(-c3ccccc3)c2c1N [Example 220]	< 2.5 nM
COCC[S+]([O-])c1sc2nc(-c3cncnc3)cc(C3CC3)c2c1N (centres unmarked) [Example 109]	< 2.5 nM
COCCC[S@@+]([O-])c1sc2nc(-c3cncnc3)cc(C(F)(F)F)c2c1N [Example 200]	< 2.5 nM
COCC[S@@+]([O-])c1sc2nc(-c3cnc4ncn(C)c4c3)cc(C3CC3)c2c1N [Example 405]	< 2.5 nM
Nc1c([S+]([O-])C2CCC2)sc2nc(-c3cncnc3)cc(-c3ccc(C4COC4)cn3)c12 (centres unmarked) [Example 128]	< 2.5 nM
COCCC[S@@+]([O-])c1sc2nc(-c3cnc4c(cnn4C)c3)cc(-c3cccnc3)c2c1N [Example 101]	< 2.5 nM
Nc1c([S+]([O-])C2CCC2)sc2nc(-c3cnc4c(c3)CNC4=O)cc(-c3ncccn3)c12 (centres unmarked) [Example 304]	2.5 to 10 nM

The remaining lines, values ahead:

IC50	SMILES
< 2.5 nM	Nc1ncc(-c2cc(-c3ncccc3F)c3c(N)c([S+]([O-])C4CCC4)sc3n2)cn1 (centres unmarked) [Example 76]
< 2.5 nM	COCC[S@@+]([O-])c1sc2nc(-c3cnc(NCCO)nc3)cc(C(F)(F)F)c2c1N [Example 206]
< 2.5 nM	CS(=O)(=O)Nc1ncc(-c2cc(-c3ccccn3)c3c(N)c([S+]([O-])C4CCC4)sc3n2)cn1 (centres unmarked) [Example 108]
< 2.5 nM	COCC[S+]([O-])c1sc2nc(-c3cncnc3)cc(C34CC(C3)C4)c2c1N (centres unmarked) [Example 256]
< 2.5 nM	COCC[S+]([O-])c1sc2nc(-c3cncnc3)cc(-c3ncccn3)c2c1N (centres unmarked) [Example 229]
< 2.5 nM	COCC[S+]([O-])c1sc2nc(-c3cnc4ncnn4c3)cc(-c3ccccc3)c2c1N (centres unmarked) [Example 399]
< 2.5 nM	Nc1ncc(-c2cc(-c3ccc(C4COC4)cc3)c3c(N)c([S+]([O-])C4CCC4)sc3n2)cn1 (centres unmarked) [Example 143]
< 2.5 nM	Nc1c([S@+]([O-])C2CCC2)sc2nc(-c3cnc(NCCO)nc3)cc(C3CCC3)c12 [Example 306]
< 2.5 nM	COCC[S+]([O-])c1sc2nc(-c3cnc4ncn(C)c4c3)cc(-c3ccccc3)c2c1N (centres unmarked) [Example 364]
< 2.5 nM	COCC[S@@+]([O-])c1sc2nc(-c3cccnc3)nc(-c3ccccc3)c2c1N [Example 55]
< 2.5 nM	COCCC[S@@+]([O-])c1sc2nc(-c3cnc(NCCO)nc3)cc(C(F)(F)F)c2c1N [Example 207]
< 2.5 nM	COCC[S@@+]([O-])c1sc2nc(-c3cnc4nncn4c3)cc(-c3ccccc3)c2c1N [Example 359]
< 2.5 nM	Nc1c([S+]([O-])C2CCC2)sc2nc(-c3cncnc3)cc(C34CC(C3)C4)c12 (centres unmarked) [Example 257]
< 2.5 nM	Cc1cc(-c2cc(-c3cncnc3)nc3sc([S+]([O-])C4CCC4)c(N)c23)ccn1 (centres unmarked) [Example 154]
< 2.5 nM	COCC[S+]([O-])c1sc2nc(-c3cnn4ccnc4c3)cc(-c3ccnn3C)c2c1N (centres unmarked) [Example 318]
< 2.5 nM	COCCC[S+]([O-])c1sc2nc(-c3cnc(N)nc3)cc(C3CC3)c2c1N (centres unmarked) [Example 107]
< 2.5 nM	COCC[S@@+]([O-])c1sc2nc(-c3cnc4nn(C)cc4c3)cc(C(C)C)c2c1N [Example 408]
< 2.5 nM	COCCC[S+]([O-])c1sc2nc(-c3cnn(C)c3)cc(C(F)(F)F)c2c1N (centres unmarked) [Example 427]
< 2.5 nM	Cn1nccc1-c1cc(-c2ccnnc2)nc2sc([S+]([O-])C3CCC3)c(N)c12 (centres unmarked) [Example 345]
< 2.5 nM	COCC[S+]([O-])c1sc2nc(-c3cnc4ncn(C)c4c3)cc(C3CCC3)c2c1N (centres unmarked) [Example 365]
< 2.5 nM	Cc1ncc(-c2cc(-c3ccccc3)c3c(N)c([S+]([O-])C4CCC4)sc3n2)cn1 (centres unmarked) [Example 99]
< 2.5 nM	Nc1c([S+]([O-])C2CCC2)sc2nc(-c3cnc(NCCOCCO)nc3)cc(-c3ccccc3)c12 (centres unmarked) [Example 141]

IC50	SMILES
< 2.5 nM	Cn1cc2cc(-c3cc(-c4ccc(OCCO)cc4)c4c(N)c([S+]([O-])C5CCC5)sc4n3)cnc2n1 (centres unmarked) [Example 283]
< 2.5 nM	COCC[S@@+]([O-])c1sc2nc(-c3cncnc3)cc(-c3ccccc3)c2c1N [Example 85]
< 2.5 nM	COCC[S+]([O-])c1sc2nc(-c3cncnc3)cc(C(F)(F)F)c2c1N (centres unmarked) [Example 130]
< 2.5 nM	CN(CCO)c1ncc(-c2cc(-c3ccccc3)c3c(N)c([S@+]([O-])C4CCC4)sc3n2)cn1 [Example 179]
< 2.5 nM	COCC[S+]([O-])c1sc2nc(-c3cccnc3)cc(C(F)(F)F)c2c1N (centres unmarked) [Example 57]
< 2.5 nM	Nc1c([S+]([O-])C2CCC2)sc2nc(-c3cnc(NCCO)nc3)cc(-c3cccc(Cl)c3)c12 (centres unmarked) [Example 192]
< 2.5 nM	Nc1c([S+]([O-])C2CCC2)sc2nc(-c3cnc(NCCO)nc3)cc(-c3ccccn3)c12 (centres unmarked) [Example 92]
< 2.5 nM	Nc1c([S+]([O-])C2CCC2)sc2nc(-c3cncnc3)cc(-c3ccc(OCCO)cc3)c12 (centres unmarked) [Example 183]
< 2.5 nM	Cn1nccc1-c1cc(-c2cnc3c(c2)nnn3C)nc2sc([S+]([O-])C3CCC3)c(N)c12 (centres unmarked) [Example 325]
< 2.5 nM	Nc1c([S+]([O-])C2CCC2)sc2nc(-c3cccnc3)cc(C(F)(F)F)c12 (centres unmarked) [Example 58]
< 2.5 nM	Cc1cc(-c2cc(-c3cnc(N)nc3)nc3sc([S+]([O-])C4CCC4)c(N)c23)n(C)n1 (centres unmarked) [Example 355]
< 2.5 nM	COCC[S+]([O-])c1sc2nc(-c3cnc4c(c3)ncn4C)cc(-c3ccnn3C)c2c1N (centres unmarked) [Example 379]
< 2.5 nM	COCCC[S+]([O-])c1sc2nc(-c3cncnc3)cc(-c3ccncn3)c2c1N (centres unmarked) [Example 237]
< 2.5 nM	COCC[S@@+]([O-])c1sc2nc(-c3cncnc3)cc(C3CC3)c2c1N [Example 148]
< 2.5 nM	COCC[S+]([O-])c1sc2nc(-c3cnn(CCO)c3)cc(-c3ccccc3)c2c1N (centres unmarked) [Example 271]
< 2.5 nM	COCC[S+]([O-])c1sc2nc(-c3cnc(N)nc3)cc(-c3cnn(C)c3)c2c1N (centres unmarked) [Example 196]
< 2.5 nM	Nc1c([S@+]([O-])C2CCC2)sc2nc(-c3cncnc3)cc(-c3ccnn3C3CC3)c12 [Example 215]
< 2.5 nM	COCC[S+]([O-])c1sc2nc(-c3cnc4c(c3)nnn4C)cc(C3CC3)c2c1N (centres unmarked) [Example 244]
< 2.5 nM	COC(=O)Nc1ccc(-c2cc(-c3cccnc3)c3c(N)c([S+]([O-])C4CCC4)sc3n2)cn1 (centres unmarked) [Example 100]
< 2.5 nM	COCC[S+]([O-])c1sc2nc(-c3cnn(C)c(=O)c3)cc(-c3ccccc3)c2c1N (centres unmarked) [Example 397]
< 2.5 nM	COCC[S+]([O-])c1sc2nc(-c3cnc4nn(CCO)cc4c3)cc(C3CCC3)c2c1N (centres unmarked) [Example 266]
< 2.5 nM	Nc1ncc(-c2cc(-c3ccno3)c3c(N)c([S+]([O-])C4CCC4)sc3n2)cn1 (centres unmarked) [Example 350]
